Source: patent US20260259229A1, “FATIGUE SYNDROME SIGNATURES AND METHODS OF TREATMENT” (The Board of Trustees of the Leland Stanford Junior …, priority 2023, published 2026)
“Also recorded” adds a separate entry of the source.

What was measured:
[1] = test system: CD4 T cells; experiment: Screening for reversal of oxidative damage: PBMCs treated with ROS inducer, then candidate drug; lipid peroxidation by flow cytometry (FIG. 9B, 9F); type: cell-based, human; conditions: drug after ROS inducer, versus positive control cells treated only with ROS inducer (FIG. 9F)
Experimental: FIGS. 9A-9F. Screening assays. (A) To identify drugs that can protect immune cell populations from oxidative stress, PBMCs are treated with candidate drugs (e.g., liproxstatin-1, metformin) for an hour, before treatment with ROS inducer (e.g., cumene […], tert-butyl hydroperoxide). By subsequently labeling cells with metabolic dyes to track oxidative stress parameters, comparisons with immune cells only treated with ROS inducer enable quantification of drugs capacity to protect against oxidative stress and damage in immune cell populations. (B) To identify drugs that can reverse oxidative stress and damage in immune cell populations, PBMCs are treated first with a ROS inducer for 30 minutes to an hour, before subsequent treatment with candidate drugs. By labeling with metabolic dyes and comparing the drug treated immune cell populations to those treated only with ROS inducer, we can quantify the capacity for drugs to reverse oxidative stress and damage in PBMCs. (C) To link these metabolic changes with immune cell function, control and disease PBMCs (e.g., from fatigue-syndrome patients) are labeled with proliferation dyes, upon which T cells are stimulated with anti-CD3/anti-CD28 antibodies and IL-2. By treating PBMCs with drugs identified from methodologies described in 9A and 9B, we can assess how metabolic changes to oxidative stress levels in drugs also modulate functional capacity of donor T cells to proliferate. While flowchart is specific to T cells (e.g., anti-CD3/anti-CD28 stimulation), the core methodology is applicable to other immune cell populations, where changes in immune cells capacity to proliferate can be assessed upon treatment with candidate drugs. (D) Application of methodology to a specific CFS patient is shown, where PBMCs treated with ROS-modulating drugs including N-acetylcysteine, metformin, and liproxstatin-1. Flow cytometry data is shown for CD4 T cells, where the x-axis corresponds to CellTraceViolet (proliferation dye) staining and the y-axis corresponds to total ROS levels. […] (E) Proportion of proliferating T cells are shown for a specific CFS patient (patient 27) along with their […] and […]. […] Lipid peroxidation changes are shown, where higher oxidative damage corresponds to a lower value on the y-axis. Identified drugs include N-acetylcysteine (NAC), metformin, liproxstatin-1, nicotinamide mononucleotide (NMN), oxaloacetate, MitoQ, Abilify, Colchicine, Naltrexone. Although this methodology is shown for CD4 T cells, it is broadly applicable to other immune cell populations (e.g., myeloid cells).
Staining: To stain for mitochondrial parameters, cells were stained with BioTracker ATP-Red Live Cell Dye (Sigma Aldrich), MitoTracker Deep Red FM (ThermoFisher), MitoSpy Green FM (BioLegend). To stain for ROS levels, cells were stained with DCFDA cellular ROS assay kit (abcam), MitoSOX Red Mitochondrial Superoxide detector (ThermoFisher). To stain for glutathione clearance and oxidative damage, cells were stained with ThiolTracker Violet (ThermoFisher), HCS LipidTOX Green Neutral Lipid Stain (ThermoFisher) for lipid droplet levels, and Image-iT™ Lipid Peroxidation Kit, ratiometric lipid peroxidation sensor (ThermoFisher). To capture viability, cells were stained with LIVE/DEAD Fixable Far Red Dead Cell Stain (ThermoFisher).

[2] = test system: CD4 and CD8 T cells (donor PBMCs); experiment: T cell proliferation assay: CellTrace Violet dye dilution, PBMCs stimulated with anti-CD3/anti-CD28 antibodies and IL-2, treated with ROS-modulating drugs; type: cell-based, human; conditions: for proportion of proliferating T cells, HC and ME-CFS PBMCs (FIG. 15): 100 μM N-acetylcysteine, liproxstatin-1, 5-days post activation; for effect in reducing T cell hyperproliferation in ME/CFS donors: female ME/CFS donors, p: NAC CD4 0.82, CD8 0.7, metformin CD4 0.041, CD8 0.39, liproxstatin-1 CD4 0.31, CD8 0.18; for reduction in T cell proliferation upon treatment, male ME/CFS: male ME/CFS PBMCs (FIG. 17: 100 μM N-acetylcysteine, 10 μM metformin, 1 μM liproxstatin-1); for proportion of proliferating CD4 T cells upon stimulation: patient 27 (ME/CFS) PBMCs treated at day 0, read 5 days after stimulation, untreated 79.3%; for effect in lowering T cell proliferation in LC female donors: female LC PBMCs (FIG. 16)
[3] = test system: patients; conditions: double-blinded phase III studies on >1300 patients, especially among female patients; cited from earlier work

NC(=O)c1ccc[n+]([C@@H]2O[C@H](COP(=O)([O-])O)[C@@H](O)[C@H]2O)c1 [nicotinamide mononucleotide]
capacity for reversing oxidative damage (lipid peroxidation changes) [1]: reversing oxidative damage

CC(=O)N[C@@H](CS)C(=O)O [NAC, N-acetylcysteine]
capacity for reversing oxidative damage (lipid peroxidation changes) [1]: reversing oxidative damage | proportion of proliferating T cells, HC and ME-CFS PBMCs (FIG. 15) [2]: no difference or decrease | effect in reducing T cell hyperproliferation in ME/CFS donors ([2]; 5 days post stimulation): did not have any effect | reduction in T cell proliferation upon treatment, male ME/CFS [2]: did not observe any reduction | proportion of proliferating CD4 T cells upon stimulation [2]: 54.3%

O=C1CCc2ccc(OCCCCN3CCN(c4cccc(Cl)c4Cl)CC3)cc2N1 [Abilify]
capacity for reversing oxidative damage (lipid peroxidation changes) [1]: reversing oxidative damage

CN(C)C(=N)N=C(N)N [metformin]
capacity for reversing oxidative damage (lipid peroxidation changes) [1]: reversing oxidative damage | reduction of Long COVID incidence [3]: 41% | effect on T cell proliferation in healthy controls ([2]; HC donors, 5 days post stimulation, metformin CD4 p=1, CD8 p=0.69): no effect; also recorded: does not alter proliferation | average reduction of CD4 T cell proliferation ([2]; LC donor PBMCs, metformin treatment (10 μM, FIG. 16B), p=0.31): 5.2% | average reduction of CD8 T cell proliferation ([2]; LC donor PBMCs, metformin treatment (10 μM, FIG. 16B), p=0.42): 7.6% | effect in lowering T cell proliferation in LC female donors ([2]; 5 days post stimulation): smaller and non-statistically significant effect | effect in reducing T cell hyperproliferation in ME/CFS donors ([2]; 5 days post stimulation): statistically significant effect in reducing CD4 T cell hyperproliferation; also recorded: statistically significant reduction | reduction in T cell proliferation upon treatment, male ME/CFS [2]: did not observe any reduction | proportion of proliferating CD4 T cells upon stimulation [2]: 53.2%

COc1cc2c(c(OC)c1OC)-c1ccc(OC)c(=O)cc1[C@@H](NC(C)=O)CC2 [Colchicine]
capacity for reversing oxidative damage (lipid peroxidation changes) [1]: reversing oxidative damage

Clc1cccc(CN=C2Nc3ccccc3NC23CCNCC3)c1 [liproxstatin-1]
capacity for reversing oxidative damage (lipid peroxidation changes) [1]: reversing oxidative damage | proportion of proliferating T cells, HC and ME-CFS PBMCs (FIG. 15) [2]: selectively lowers proliferation in ME-CFS and not the HC donors | effect in lowering T cell proliferation in LC female donors ([2]; 5 days post stimulation): did not show a statistically significant effect | effect in reducing T cell hyperproliferation in ME/CFS donors ([2]; 5 days post stimulation): did not show a statistically significant effect | reduction in T cell proliferation upon treatment, male ME/CFS [2]: did not observe any reduction | proportion of proliferating CD4 T cells upon stimulation [2]: 64.5%

COC1=C(OC)C(=O)C(CCCCCCCCCC[P+](c2ccccc2)(c2ccccc2)c2ccccc2)=C(C)C1=O [MitoQ]
capacity for reversing oxidative damage (lipid peroxidation changes) [1]: reversing oxidative damage

O=C1CC[C@@]2(O)[C@H]3Cc4ccc(O)c5c4[C@@]2(CCN3CC2CC2)[C@H]1O5 [Naltrexone]
capacity for reversing oxidative damage (lipid peroxidation changes) [1]: reversing oxidative damage
